In patent US20120045532A1, “Anticancer Methods Employing Extracts of Gleditsia sinensis Lam” (priority 2008, published 2012):

Key:
Hs578T = assay: Annexin V/PI binding (cell death/apoptosis), flow cytometry; format: cell-based; conditions: for effect of addition of cholesterol on induced death: Hs578T cells, 70 μg/ml BN107, 0.2 mg/ml BZL101 or 500 nM taxol with 500 μM cholesterol, 18 hours
Description: (§1) ERα plays a role in BN107-induced apoptosis. In Table 1-1 below are the results of experiments in which cells were treated with BN107 and harvested after 24 hours for analysis of Annexin V/PI binding. Three independent experiments were conducted for each data point.
(§2) BN107 induced apoptosis selectively in ER− breast cancer cells and introducing expression of ERα protected these cells against BN107 Prior studies have shown that ethanolic extract of G. sinensis is cytotoxic to a number tumor cell lines by inducing cytotoxicity. A wider panel of solid-tumor cell lines, derived from various origins, is analyzed herein. Sub-confluent cultures were treated with 70 μg/ml of BN107 for 18 hours and cell death were analyzed by annexinV/PI binding followed by flow cytometry. […] It is evident that BN107 induced cell death in tumor lines derived from various origins to different extent. […] These experiments sought to determine if there was correlative relationship between genotypic characteristics of the cells versus sensitivity. As shown in Table 2-1, it appeared that cells lacking ER expression were highly sensitive to BN107; while cells containing functional ER were relatively insensitive to BN107 at this dose. The death induced by BN107 in ER− lines was apoptotic in nature that was primarily mediated by the mitochondrial pathway, as evident from Annexin V binding, dissipation of mitochondrial potential, cytosolic release of cytochrome C, activation of caspases, and DNA fragmentation.
(§3) All the cell lines used were purchased from ATCC. Cells were treated with 70 μg/ml of BN107 (calculated based on freeze-dry weight). The dose is determined based on the EC50 of each batch in killing 50% of Hs578T or MDA-MB-231 cells 18 hours after treatment.
(§4) Cell survival was measured using FACS analysis of AnnexinV-alexa 488/PI bound cells following the manufacturer's instruction (Invitrogen). Mitochondrial transmembrane potential (MTP) was determined using JC-1 dye (Invitrogen) in live cells and analyzed using flow cytomery. Caspase 3 and 9 activities were measured using specific caspase peptide inhibitors (Calbiochem) conjugated to FITC followed by flow cytometry analysis. Cytosolic cytochrome C release were determined by separating the cytosol from mitochondria (Biovision) and cytochrome C released in cytosol was shown using immunoblotting.

MDA-MB-231 = assay: as above; format: cell-based; conditions: Homo sapiens, MDA-MB-231, read-out: EC50 for MDA-MB-231
Description: as §1, §2, §3, §4

[1] = test system: phospho-mTOR, total mTOR, RAPTOR and RICTOR in LR fractions of Hs578T; assay: Western blot of lipid raft fractions: mTOR complex components; format: cell-based, human; conditions: Hs578T cells; 70 μg/ml BN107 or 110 μM oleanolic acid, 4 hours
Description: (§5) As Akt/mTOR, the main survival signaling pathway, has been implicated to take place on LRs, it was hypothesized that BN107 and similarly OA disrupted the signaling of these complexes on LRs. The fractions collected from sucrose-density—centrifugation of BN107 or OA treated Hs578T or MCF7 lysates were dialyzed and concentrated. Same amounts of protein from LR (fractions 3-5), non-LR plasma membrane (f6), and cytosolic (f8) fractions were analyzed by Western blotting. The levels of RAPTOR, Akt, 4E-BP, p70S6 kinase were first observed in these collected fractions; and it was confirmed that they were all enriched in the LR fractions (data not shown). The levels of phospho-mTOR, total mTOR; as well as the mTORC1 and mTORC2 complex partner RAPTOR and RICTOR, respectively, were then measured in BN107 or OA treated Hs578T cells. […]
(§6) A modified procedure for density gradient centrifugation using Nycodenz from Sigma-Aldrich (St. Louis, Mo.) was used to fractionate Triton X-100-soluble and Triton X-100-insoluble membrane and cytoskeletal subdomains and complexes. […] Total of 10 fractions and control input lysate were analyzed for the distribution of proteins by Western blot. […] The fractions were dialyzed against PBS to remove the gradient sugars and concentrated using Amicon Ultra 4 centrifugal filter device (Millipore) before protein quantitation (BCA reagent, Thermo Fisher). […]

mTORC1 = mTORC1 activity by phosphorylation of 4E-BP and p70S6 kinase (Western); format: cell-based, human; conditions: lipid raft region of Hs578T cells; 70 μg/ml BN107 or 110 μM oleanolic acid, 4 hr
Description: as §5, §6

mTORC2 / Akt = assay: Ser473-phosphorylated Akt in LR fractions as read-out for mTORC2 activity (Western); format: cell-based, human; conditions: Hs578T cells; 70 μg/ml BN107 or 110 μM oleanolic acid, 4 hr
Description: (§7) In addition, as the same pool of mTOR/FRAP1 polypeptide is shared between the mTORC1 and mTORC2 complex and the mTORC2 complex partner RICTOR was decreased in the lipid rafts of BN107 or OA-treated Hs578T cells, it was hypothesized that mTORC2 activity would be inhibited as well. Given the recent discovery that mTORC2 is the main kinase phosphorylating Akt at Ser473, and Akt signaling has been implicated to take place on LRs, the level of Ser473 phosphorylated Akt was analyzed in LR fractions as a read-out for mTORC2 activity. […] Conversely, addition of exogenous cholesterol restored these signaling events disrupted by BN107 or OA (FIG. 8C). […] The levels of transferrin receptor (TR) marking the non-LR plasma membrane region and GAPDH marking the cytosolic fractions were not affected in both cell lines by either BN107 or OA treatment.
as §6

[2] = test system: mTORC1/mTORC2/Akt signaling in MCF7 cells; assay: Western blot of lipid raft fractions, resistant cells; format: cell-based, human
Description: as §7, §6

[3] = test system: mTOR/FRAP1, phospho-mTOR, RAPTOR, RICTOR, Akt in Hs578T cells; assay: Western analysis of total cellular lysate; format: cell-based, human; conditions: ER− Hs578T cells (data not shown)
Source text: To ascertain that these signaling changes occurred at LRs indeed translated into the whole-cell level. […] Consistent with the data shown within the lipid raft fractions, levels of total mTOR/FRAP1, phospho-mTOR, RAPTOR, and RICTOR were all decreased within one hour of BN107 treatment, resulting in minimal mTORC1 and mTORC2 activities to phosphorylate 4E-BP and p70S6 kinase, and Ser473-Akt, respectively. The decrease in total protein levels of mTOR/FRAP1, RAPTOR and RICTOR occurred post-transcriptionally as the levels of their corresponding mRNAs were not modulated by BN107 or OA treatment in the sensitive ER− Hs578T cells (data not shown). […] These effects were presumably due to their cholesterol binding/stripping effect on LRs, as addition of exogenous cholesterol seemed to reverse these events (FIG. 8C).
Cell extracts, obtained by scraping cells in PBS in the presence of protein phosphatase and protease inhibitors and lysing with ice-cold RIPA buffer, were loaded on the SDS-PAGE at 25-30 μg per lane. Same amounts of proteins […] were precipitated from lipid raft fractions and loaded onto 3-7% TA gel or 4-12% Bis-Tris gels. Separated proteins were transferred onto nitrocellulose membrane (iBlot, Invitrogen) and used for probing with specific antibodies following manufacturer's instruction. Blots were reused several times after mild stripping (Restore, ThermoFisher) when necessary. […]

[4] = animals; cited from earlier work

Row | Compound | EC50 (Hs578T; Homo sapiens, Hs-578T, read-out: EC50 for Hs578T) [µM] | effect of addition of cholesterol on induced death (Hs578T) | EC50 (MDA-MB-231) [µM] | levels of phospho-mTOR, total mTOR, RAPTOR and RICTOR in LR fractions [1] | mTORC1 activity (phosphorylation of 4E-BP and p70S6 kinase) (mTORC1) | level of Ser473-phosphorylated Akt in LR fractions (mTORC2 read-out) (mTORC2 / Akt) | total level of Akt on LRs (mTORC2 / Akt) | changes in mTORC1/mTORC2/Akt signaling on LRs [2] | mRNA levels of mTOR/FRAP1, RAPTOR and RICTOR [3] | toxicity at anti-tumor doses [4]
1 | CC1(C)CC[C@]2(C(=O)O)CC[C@]3(C)C(=CC[C@@H]4[C@@]5(C)CC[C@H](O)C(C)(C)[C@@H]5CC[C@]43C)[C@@H]2C1 [OA, oleanolic acid] | 110 | protected cells specifically and completely | 125 | significantly decreased | greatly inhibited | decreased | no effect | None of these changes were observed | not modulated | minimal toxicity
2 | CC(=O)O[C@H]1C(=O)[C@@]2(C)[C@H]([C@H](OC(=O)c3ccccc3)[C@]3(O)C[C@H](OC(=O)[C@H](O)[C@@H](NC(=O)c4ccccc4)c4ccccc4)C(C)=C1C3(C)C)[C@]1(OC(C)=O)CO[C@@H]1C[C@@H]2O [taxol, paclitaxel, reference compound] |  | no effect |  |  |  |  |  |  |  | 
